We go through 4 compounds from patent US11767330B2, “Citrate salt, pharmaceutical compositions, and methods of making and using the same” (Foghorn Therapeutics Inc., priority 2021, dated 2023).

What all share (type): physicochemical
A short description of data set [1]: Thermal treatment of solid forms followed by XRPD. Conditions: heated, held, cooled down to RT. The method, then: Thermal Treatment of Amorphous Salt. […] The thermal events were measured by TGA/DSC and XRPD was used to study the resulting materials.
To study the effect of the temperature, the compound was subjected to a thermal treatment consisting of heating up the sample from RT up to 100° C. at a 10° C./min, and holding this temperature for 5 min to subsequently cool down to RT. The sample was collected and further analyzed with XRPD.
The sample was subjected to a thermal treatment consisting of heating the sample gradually (10° C./min) up to the first two thermal events shown by TGA/DSC analysis, i.e., 130 and 225° C. In each case, the temperature was held for 5 min, followed by cooling down to RT. The sample was collected and further analyzed with XRPD. […] Overall, the crystalline freebase Pattern FF-B obtained from acetone lost some crystallinity upon drying and exposure to humidity and heat.

Data set [2] in a line: Amorphous to crystalline studies (long-term slurries, vapor diffusion, slow evaporation). As to conditions: Am = amorphous. The method, then:
Long-Term Slurries. Long-term slurries were carried out for the purpose of producing crystalline forms. […] In this procedure, 30 mg of solid was added to a 2 mL vial containing a 6.3 mm stir bar. Then, 3 vol. of solvent was added, followed by the addition of more solvent in 5 vol. increments until it formed a flowable slurry. After 10 days, the solids were filtered and transferred to an XRPD plate for further analysis on the wet cake. Overall, crystalline patterns were not observed after one week. However, a crystalline solid was observed after stirring in MeOH for about six weeks.
Vapor-Diffusion Crystallization onto Solution and Solids. […] A suitable solvent was added to completely dissolve the solid, while producing a solution of slightly undersaturated concentration. The open vial was placed inside a 20 mL scintillation vial and 3 mL of antisolvent was added to the 20 mL vial to diffuse into the solution. The 20 mL vial was capped, sealed with parafilm, and kept undisturbed at RT.
Vapor diffusion onto solids was also started. The procedure is very similar, with the only difference that the active pharmaceutical ingredient (API) is not dissolved in a solvent; the vapor diffused directly onto the solid. The samples were monitored for visual changes in the solid (color, texture, size, etc.) over 2 months.
Slow Evaporation. […] The samples that were thin slurries were filtered with a […] syringe filter to obtain a clear solution. In some cases, cosolvent was added to obtain a solution. A needle was inserted in the cap septa to allow the solvents to evaporate slowly. The solutions were monitored frequently for precipitation.

Data set [3] can be described thus: Stability at 40° C./75% RH for 1 week. Conditions: for XRPD after storage / chemical purity by HPLC after storage / chiral purity by HPLC after storage: 40° C. and 75% RH. The method, then:
The humid environment was generated with saturated sodium chloride in water in a sealed container. After one week, the sample appeared pale-yellow upon inspection.
The one-week stability at 75% RH was also tested. In this experiment, 12 mg of the dried crystalline freebase from MeOH were weighted in a 4 mL vial and placed in a 20 mL vial set at 40° C. and 75% RH for 1 week. The humid environment was generated with saturated sodium chloride in water in a sealed container.
The one-week stability at 75% RH was also tested. In this experiment, 12 mg of the crystalline freebase from MeOH was weighted in a 4 mL vial and placed in a 20 mL vial set at 40° C. and 75% RH for 1 week. The humid environment was generated with saturated sodium chloride in water in a sealed container.

A short description of data set [4]: Solid form characterisation (TGA/DSC, KF, XRPD, HPLC chemical and chiral purity). As to conditions: initial, before stability test. The protocol: Differential Scanning Calorimetry (DSC). DSC was performed using a Mettler Toledo DSC^3+. The sample (1-5 mg) was weighed directly in a 40 μL hermetic aluminum pan with a pinhole and analyzed according to the parameters in Tables 41 and 42.
High Performance Liquid Chromatography (HPLC). HPLC was conducted using an Agilent 1220 Infinity LC or Agilent 1220 Infinity 2 LC equipped with diode array detector (DAD). Flow rate range of the instrument is 0.2-5.0 mL/min, operating pressure range is 0-600 bar, temperature range is 5° C. above ambient to 60° C., and wavelength range is 190-600 nm.
Karl Fischer (KF) Titration. KF titration for water determination was performed using a Mettler Toledo C20S Coulometric KF Titrator equipped with a current generator cell with a diaphragm, and a double-platinum-pin electrode. The range of detection of the instrument is 1 ppm to 5% water. Aquastar™
CombiCoulomat fritless reagent was used in both the anode and cathode compartments. Samples of approximately 0.03-0.10 g were dissolved in the anode compartment and titrated until the solution potential dropped below 100 mV. Hydranal 1 wt. % water standard was used for validation prior to sample analysis.
Simultaneous Thermogravimetric Analysis and Differential Scanning Calorimetry (TGA and DSC). TGA and DSC were performed on the same sample simultaneously using a Mettler Toledo TGA/DSC^3+. Protective and purge gas was nitrogen at a flowrate of 20-30 mL/min and 50-100 mL/min, respectively. The desired amount of sample (5-10 mg) was weighed directly in a hermetic aluminum pan with pinhole and analyzed according to the parameters below:
(§1) X-Ray Powder Diffraction (XRPD). XRPD was performed using a Rigaku MiniFlex 600 in reflection mode (i.e., Bragg-Brentano geometry). Samples were prepared on Si zero-return wafers.
XRPD was performed using a Bruker D8 Advance equipped with LYNXEYE detector in reflection mode (i.e., Bragg-Brentano geometry). Samples were prepared on Si zero-return wafers.

Data set [5] is described as follows: Dynamic vapor sorption (DVS) hygroscopicity. As to conditions: for Hygroscopicity by DVS (up to 95% RH): mass change up to 95% RH. The protocol:
Dynamic Vapor Sorption (DVS). DVS was performed using a Q5000SA. The sample (5-15 mg) was loaded into a metallic quartz sample pan, suspended from a microbalance, and exposed to a humidified stream of nitrogen gas. Weight changes were relative to a matching empty reference pan opposite the sample, suspended from the microbalance. One of two methods was used:
Method 1: The sample was held for a minimum of 10 min at each level and only progressed to the next humidity level if there was <0.002% change in weight between measurements (interval: 5 s) or 60 min had elapsed.

Data set [6] is described as follows: Physical stability by XRPD upon drying at 50° C. under vacuum and exposure to >95% RH. Conditions: for XRPD pattern Dry: after drying; for XRPD pattern Dry / XRPD pattern Humid / XRPD pattern Wet: Am = amorphous; for XRPD pattern Humid: after exposure to humidity; for XRPD pattern Wet: solid form of compound R-D1. The protocol: as §1
XRPD analysis was done in three stages. XRPD of the wet cake was done for all samples where solids were observed.
The solids were then exposed to >95% RH overnight. This humid environment was produced by placing a beaker of saturated potassium sulfate in water in a sealed container at RT. The materials exposed to these conditions were evaluated by XRPD, and their patterns were compared to those produced before.
The pattern FF-B was dried at 50° C. under vacuum for 3 h after filtration for further XRPD analysis. The solids were then exposed to >95% RH overnight. This humid environment was produced by placing a beaker of saturated potassium sulfate in water in a sealed container at RT. The materials exposed to these conditions were evaluated by XRPD, and their patterns were compared to those of the crystalline freebase along each step.

“Also recorded” adds a separate entry of the source.

In the case of `COc1cc(-c2cn(C)c(=O)c3cnc(N4CCC4)cc23)cc(OC)c1CN1CCC(CN2CCC3(CC2)CN(c2ccc4c(c2)C(=O)N([C@@H]2CCC(=O)NC2=O)C4)C3)CC1.O=C(O)CC(O)(CC(=O)O)C(=O)O` [citrate salt of compound R-D1], the “XRPD after thermal treatment” value in data set [1] is reported as “None of these experiments resulted in crystalline solids”. The Pattern result in data set [2] (antisolvent vapor diffusion onto solution, RT, solvent Benzyl alcohol, antisolvent Acetone) was “Am”; in data set [2] (antisolvent vapor diffusion onto solution, RT, solvent Benzyl alcohol, antisolvent EtOH), “Am”; in data set [2] (antisolvent vapor diffusion onto solution, RT, solvent Benzyl alcohol, antisolvent MeOAc), “Am”; in data set [2] (antisolvent vapor diffusion onto solution, RT, solvent DMAC, antisolvent ACN), “Am”; in data set [2] (antisolvent vapor diffusion onto solution, RT, solvent DMAC, antisolvent Acetone), “Am”; in data set [2] (antisolvent vapor diffusion onto solution, RT, solvent DMAC, antisolvent DCM), “Am”. Further, the Pattern result in data set [2] (antisolvent vapor diffusion onto solution, RT, solvent DMAC, antisolvent EtOAc) was “Am”; in data set [2] (antisolvent vapor diffusion onto solution, RT, solvent DMAC, antisolvent IPA), “Am”; in data set [2] (antisolvent vapor diffusion onto solution, RT, solvent DMAC, antisolvent MEK), “Am”; in data set [2] (antisolvent vapor diffusion onto solution, RT, solvent DMSO, antisolvent Acetone) it was “Am”; in data set [2] (antisolvent vapor diffusion onto solution, RT, solvent DMSO, antisolvent DCM), “Am”; in data set [2] (antisolvent vapor diffusion onto solution, RT, solvent DMSO, antisolvent EtOH), “Am”. For the same compound, the Pattern result in data set [2] (antisolvent vapor diffusion onto solution, RT, solvent DMSO, antisolvent MEK) is given as “Am”; in data set [2] (antisolvent vapor diffusion onto solution, RT, solvent DMSO, antisolvent MeOAc), “Am”; in data set [2] (vapor diffusion onto solids, over 2 months, antisolvent Chloroform) it was “Am”; in data set [2] (vapor diffusion onto solids, over 2 months, antisolvent Cyclohexane) it was “Am”; in data set [2] (vapor diffusion onto solids, over 2 months, antisolvent DCM), “Am”; in data set [2] (vapor diffusion onto solids, over 2 months, antisolvent Diethyl ether), “Am”. Also, the Pattern result is recorded as “Am” in data set [2] (vapor diffusion onto solids, over 2 months, antisolvent Hexanes); “Am” in data set [2] (vapor diffusion onto solids, over 2 months, antisolvent MeOH); “Am” in data set [2] (vapor diffusion onto solids, over 2 months, antisolvent Methyl cyclohexane); “Am” in data set [2] (vapor diffusion onto solids, over 2 months, antisolvent MtBE). Besides, the XRPD after storage entry in data set [3] is “did not show conversion to a crystalline form”.

Regarding `COc1cc(-c2cn(C)c(=O)c3cnc(N4CCC4)cc23)cc(OC)c1CN1CCC(CN2CCC3(CC2)CN(c2ccc4c(c2)C(=O)N([C@@H]2CCC(=O)NC2=O)C4)C3)CC1.O=C(O)CC(O)(CC(=O)O)C(=O)O` [Citrate of Compound R-D1], in data set [4], the “Purity by HPLC (%) [chiral]” value was “[99.05] %” and the “Purity by HPLC (%) chemical” value came out at 99.46%. Further, in data set [5], the “HPLC chemical purity after DVS analysis” value worked out at 99.55%, the “XRPD after DVS analysis” value was “did not show conversion to a crystalline pattern after performing the DVS analysis”, the “hygroscopicity according to the European Pharmacopeia standards (DVS)” value (shortened to “hygroscopicity according”) is recorded as “very hygroscopic” and the “Hygroscopicity by DVS (up to 95% RH)” value is over 25.55 wt. %. Further, in data set [6], the “XRPD pattern Dry” value is on record as “Am”, the “XRPD pattern Humid” value is “Am” and the “XRPD pattern Wet” value is reported as “Am”. The “Purity by HPLC (%) After 1 week 75% RH chemical” value in data set [3] (40° C./75% RH) came out at 99.12%.

As to `COc1cc(-c2cn(C)c(=O)c3cnc(N4CCC4)cc23)cc(OC)c1CN1CCC(CN2CCC3(CC2)CN(c2ccc4c(c2)C(=O)N([C@@H]2CCC(=O)NC2=O)C4)C3)CC1` [pattern FF-B], in data set [1], the “XRPD after thermal treatment” value was “decreased crystallinity after exposure to 130 °C”. Also, in data set [4], the “Purity by HPLC (%) [chiral]” value was “[96.56] %” and the “Purity by HPLC (%) chemical” value was 98.85%. Besides, in data set [5], the “HPLC chemical purity after DVS analysis” value is given as 99.06%, the “XRPD after DVS analysis” value is given as “slight loss in crystallinity”, the “hygroscopicity according” value is listed as “hygroscopic” and the “Hygroscopicity by DVS (up to 95% RH)” value is on record as over 8.80 wt. %. Also, in data set [6], the “physical stability (XRPD) upon drying at 50° C. under vacuum and exposure to >95% RH” value is recorded as “crystallinity of the compound decreased after drying the sample under vacuum; also recorded: Some of the crystallinity was regained after exposing the sample to high RH overnight”; the “XRPD pattern Dry” value was “FF-B”; the “XRPD pattern Humid” value is “FF-B”; the “XRPD pattern Wet” value is “FF-B”. Also, in data set [3], the XRPD after storage result is “splitting of the signal at 5.3 and 13.7°”; the “chemical purity by HPLC after storage” value came out at 98.56%; the “chiral purity by HPLC after storage” value came to 96.13%. In data set [3] (40° C./75% RH), the “Purity by HPLC (%) After 1 week 75% RH [chiral]” value was “[96.13] %” and the “Purity by HPLC (%) After 1 week 75% RH chemical” value stood at 98.56%.

As to `COc1cc(-c2cn(C)c(=O)c3cnc(N4CCC4)cc23)cc(OC)c1CN1CCC(CN2CCC3(CC2)CN(c2ccc4c(c2)C(=O)N([C@@H]2CCC(=O)NC2=O)C4)C3)CC1` [Pattern FF-A], in data set [1], the “XRPD after thermal treatment” value was “loss of some crystallinity”. Besides, in data set [5], the “HPLC chemical purity after DVS analysis” value is 98.68%, the “XRPD after DVS analysis” value is “new signal at 26=5.8°” and the “hygroscopicity according” value is given as “hygroscopic”. Besides, in data set [6], the “physical stability (XRPD) upon drying at 50° C. under vacuum and exposure to >95% RH” value is “Reduction in the crystallinity”. Moreover, in data set [3], the “chemical purity by HPLC after storage” value came to 98.27% and the “chiral purity by HPLC after storage” value turned out to be 94.55%.
